# Assay results: US9902714B2, “Quinoxaline derivatives useful as FGFR kinase modulators” (ASTEX THERAPEUTICS LTD, priority 2014, dated 2018)
# Key:
# [1] = molecular target: FGFR4 (Homo sapiens (Human), UniProt P22455); experiment: Enzyme binding assay (KINOMEscan) FGFR4
# [2] = molecular target: VEGFR2 (Homo sapiens (Human), UniProt P35968); experiment: Enzyme binding assay (KINOMEscan) VEGFR2
# Chain of VEGFR2 (P35968 20-1356): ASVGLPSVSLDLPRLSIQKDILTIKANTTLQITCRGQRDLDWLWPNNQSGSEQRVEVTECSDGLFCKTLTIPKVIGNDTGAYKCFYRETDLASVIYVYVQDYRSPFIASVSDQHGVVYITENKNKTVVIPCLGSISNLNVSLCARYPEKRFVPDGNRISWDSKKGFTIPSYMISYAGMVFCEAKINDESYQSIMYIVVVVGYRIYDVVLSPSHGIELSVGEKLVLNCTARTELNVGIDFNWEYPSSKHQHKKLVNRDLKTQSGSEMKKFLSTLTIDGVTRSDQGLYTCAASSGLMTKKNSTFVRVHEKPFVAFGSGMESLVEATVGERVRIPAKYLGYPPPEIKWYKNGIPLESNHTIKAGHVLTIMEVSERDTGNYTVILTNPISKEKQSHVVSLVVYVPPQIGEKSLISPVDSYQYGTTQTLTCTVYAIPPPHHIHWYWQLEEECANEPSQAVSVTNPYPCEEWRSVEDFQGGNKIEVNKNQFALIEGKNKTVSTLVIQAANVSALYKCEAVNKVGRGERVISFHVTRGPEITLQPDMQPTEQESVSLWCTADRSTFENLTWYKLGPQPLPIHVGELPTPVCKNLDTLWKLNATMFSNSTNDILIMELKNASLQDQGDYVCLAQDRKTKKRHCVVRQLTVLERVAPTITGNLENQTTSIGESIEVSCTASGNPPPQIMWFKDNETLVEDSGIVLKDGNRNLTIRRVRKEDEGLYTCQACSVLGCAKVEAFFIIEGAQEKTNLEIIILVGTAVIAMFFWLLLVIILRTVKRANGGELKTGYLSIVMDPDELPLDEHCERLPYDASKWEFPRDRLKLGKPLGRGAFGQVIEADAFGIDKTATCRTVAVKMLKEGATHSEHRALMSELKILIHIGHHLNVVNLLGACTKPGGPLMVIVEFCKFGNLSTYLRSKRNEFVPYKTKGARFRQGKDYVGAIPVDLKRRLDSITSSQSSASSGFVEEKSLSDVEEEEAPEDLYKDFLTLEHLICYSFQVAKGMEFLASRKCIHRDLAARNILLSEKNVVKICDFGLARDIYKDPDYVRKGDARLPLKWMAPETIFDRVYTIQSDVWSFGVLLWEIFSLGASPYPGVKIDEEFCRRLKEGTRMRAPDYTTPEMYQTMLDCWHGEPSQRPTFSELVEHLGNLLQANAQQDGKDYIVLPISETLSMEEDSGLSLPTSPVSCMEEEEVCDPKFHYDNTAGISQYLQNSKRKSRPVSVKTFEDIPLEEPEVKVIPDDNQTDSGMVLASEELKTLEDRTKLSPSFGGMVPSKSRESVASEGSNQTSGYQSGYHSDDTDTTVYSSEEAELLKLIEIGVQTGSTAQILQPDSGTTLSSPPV
# Chain of FGFR4 (P22455 22-802): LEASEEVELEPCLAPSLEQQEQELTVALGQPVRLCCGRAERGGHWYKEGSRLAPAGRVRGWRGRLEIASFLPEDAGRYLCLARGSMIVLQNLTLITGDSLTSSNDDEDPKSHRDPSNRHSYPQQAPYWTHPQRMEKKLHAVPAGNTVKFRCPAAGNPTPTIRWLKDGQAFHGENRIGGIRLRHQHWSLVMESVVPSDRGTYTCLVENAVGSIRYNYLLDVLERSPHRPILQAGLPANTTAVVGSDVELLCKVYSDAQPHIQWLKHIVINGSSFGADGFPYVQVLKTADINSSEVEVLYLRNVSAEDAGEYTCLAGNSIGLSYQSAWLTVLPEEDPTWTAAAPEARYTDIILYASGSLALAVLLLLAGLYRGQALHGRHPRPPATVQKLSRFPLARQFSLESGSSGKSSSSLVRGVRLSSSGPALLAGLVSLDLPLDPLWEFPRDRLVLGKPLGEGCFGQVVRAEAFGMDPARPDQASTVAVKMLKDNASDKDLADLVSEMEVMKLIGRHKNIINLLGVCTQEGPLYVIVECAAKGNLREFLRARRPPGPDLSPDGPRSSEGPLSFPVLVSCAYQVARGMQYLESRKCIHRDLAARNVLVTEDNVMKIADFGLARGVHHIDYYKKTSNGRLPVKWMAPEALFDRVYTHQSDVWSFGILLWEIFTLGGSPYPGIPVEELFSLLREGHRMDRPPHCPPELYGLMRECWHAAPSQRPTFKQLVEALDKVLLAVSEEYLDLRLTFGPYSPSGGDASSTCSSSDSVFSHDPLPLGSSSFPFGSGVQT
Structure (SMILES),Kd [1],Kd [2]
COc1cc(O)c2c(c1)N(c1ccc3ncc(-c4cnn(C)c4)nc3c1)CCN(C(C)C)C2 [Compound 3],1900 nM,> 3000 nM
COc1cc(O)cc2c1CN(C(C)C)CCN2c1ccc2ncc(-c3cnn(C)c3)nc2c1 [Compound 4],> 3000 nM,> 3000 nM
CCn1cc(-c2cnc3ccc(N4CCN(C)Cc5c(OC)cc(OC)cc54)cc3n2)cn1 [Compound 6],> 3000 nM,> 3000 nM

# Now those with a lower Kd [1], led by results:
Kd [1],Kd [2],Structure (SMILES)
68 nM,741 nM,COc1cc(OC)c2c(c1)N(c1ccc3ncc(-c4cn[nH]c4)nc3c1)CCN(C(C)C)C2 [Compound 2]
230 nM,1700 nM,CCn1cc(-c2cnc3ccc(N4CCN(C(C)C)Cc5c(OC)cc(OC)cc54)cc3n2)cn1 [Compound 7]
355 nM,922 nM,COc1cc(OC)c2c(c1)N(c1ccc3ncc(-c4cnn(C)c4)nc3c1)CCCN(C(C)C)C2 [Compound 9]
